Test results as given in the supplement of paper PMC10307832.

Tests used:
Test in all cases: relative viability (nuclei count vs DMSO), 5 days (fraction); higher = more cells survive
[1] = compound: COc1cc([C@@H]2c3cc4c(cc3[C@@H](O[C@@H]3O[C@@H]5CO[C@@H](C)O[C@H]5[C@H](O)[C@H]3O)[C@H]3COC(=O)[C@H]23)OCO4)cc(OC)c1O [Etoposide] + COc1cc2c(Oc3ccc(NC(=O)C4(C(=O)Nc5ccc(F)cc5)CC4)cc3F)ccnc2cc1OCCCN1CCOCC1 [Foretinib] (partner 0.25 µM)
Summary of the method: (§1)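 After 5 days of treatment, lung cancer cells in 1536-well plates were fixed and stained in a single step (final 0.05% Triton X-100, 1% formaldehyde, 1 ug/ml Hoechst) and their nuclei counted on 4× images. Treatment had been applied by pin tool the day after seeding as one drug alone or as a fixed anchor-drug dose with five library-drug doses (not always all listed) in √10 steps. Relative viability is the nuclei count of treated wells divided by that of vehicle wells, and values are medians of duplicate plates.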

[2] = compound: COc1cc([C@@H]2c3cc4c(cc3[C@@H](O[C@@H]3O[C@@H]5CO[C@@H](C)O[C@H]5[C@H](O)[C@H]3O)[C@H]3COC(=O)[C@H]23)OCO4)cc(OC)c1O [Etoposide] + C[C@@H](Oc1cc(-c2cnn(C3CCNCC3)c2)cnc1N)c1c(Cl)ccc(F)c1Cl [Crizotinib] (partner 1 µM)
Summary of the method: as §1

[3] = compound: CC1=C(N=C(N=C1N)[C@H](CC(=O)N)NC[C@@H](C(=O)N)N)C(=O)N[C@@H]([C@H](C2=CN=CN2)OC3C(C(C(C(O3)CO)O)O)OC4C(C(C(C(O4)CO)O)OC(=O)N)O)C(=O)N[C@H](C)[C@H]([C@H](C)C(=O)N[C@@H]([C@@H](C)O)C(=O)NCCC5=NC(=CS5)C6=NC(=CS6)C(=O)NCCC[S+](C)C)O [Bleomycin] + NC(=O)Nc1cc(-c2cccc(F)c2)sc1C(=O)N[C@H]1CCCNC1 [AZD7762] (partner 0.2 µM); settings: main component drawn
Summary of the method: as §1

[4] = compound: CC1=C(N=C(N=C1N)[C@H](CC(=O)N)NC[C@@H](C(=O)N)N)C(=O)N[C@@H]([C@H](C2=CN=CN2)OC3C(C(C(C(O3)CO)O)O)OC4C(C(C(C(O4)CO)O)OC(=O)N)O)C(=O)N[C@H](C)[C@H]([C@H](C)C(=O)N[C@@H]([C@@H](C)O)C(=O)NCCC5=NC(=CS5)C6=NC(=CS6)C(=O)NCCC[S+](C)C)O [Bleomycin] + O=C(c1cc(Cc2n[nH]c(=O)c3ccccc23)ccc1F)N1CCN(C(=O)C2CC2)CC1 [Olaparib] (partner 8 µM); settings: main component drawn
Summary of the method: as §1

Cell Line	relative viability ([1]; first compound 0.01 µM)	relative viability ([1]; first compound 0.03162 µM)	relative viability ([1]; first compound 0.1 µM)	relative viability ([1]; first compound 0.3162 µM)	relative viability ([1]; first compound 1 µM)	relative viability ([2]; first compound 0.01 µM)	relative viability ([2]; first compound 0.03162 µM)	relative viability ([2]; first compound 0.1 µM)	relative viability ([2]; first compound 0.3162 µM)	relative viability ([2]; first compound 1 µM)	relative viability ([3]; first compound 0.01 µM)	relative viability ([3]; first compound 0.03162 µM)	relative viability ([3]; first compound 0.1 µM)	relative viability ([3]; first compound 0.3162 µM)	relative viability ([3]; first compound 1 µM)	relative viability ([4]; first compound 0.01 µM)	relative viability ([4]; first compound 0.03162 µM)	relative viability ([4]; first compound 0.1 µM)	relative viability ([4]; first compound 0.3162 µM)	relative viability ([4]; first compound 1 µM)
NCI-H1915	1.06	1.18	1.16	0.986	0.877	0.859	0.985	0.825	0.802	0.481	0.53	0.552	0.314	0.221	0.137	0.2	0.226	0.166	0.137	0.11
NCI-H1944	0.697	0.95	0.578	0.471	0.347	1.03	1.1	0.763	0.641	0.258	0.246	0.384	0.317	0.211	0.172	0.259	0.252	0.264	0.18	0.151
NCI-H1975	0.914	0.938	0.895	0.91	0.286	0.98	1.06	1.05	0.668	0.249	0.609	0.649	0.555	0.259	0.291	0.565	0.387	0.394	0.169	0.181
NCI-H1993	0.788	0.906	0.557	0.733	0.51	0.758	0.856	0.734	0.712	0.473	0.723	0.822	0.739	0.491	0.517	0.763	0.728	0.645	0.353	0.43
NCI-H2085	0.781	0.897	0.88	0.667	0.33	0.91	0.871	0.827	0.5	0.326	0.896	0.967	0.828	0.301	0.464	0.665	0.716	0.47	0.376	0.383
NCI-H2087	1.04	1.11	0.859	0.46	0.221	–	1.02	0.856	0.571	0.277	0.981	1.2	1.31	0.976	0.512	0.366	0.46	0.442	0.182	0.145
NCI-H2126	1.05	1.08	–	0.712	0.394	0.998	1.05	0.765	0.888	0.328	0.932	0.963	1.15	0.894	0.922	0.863	0.933	0.932	0.739	0.67
NCI-H2170	0.988	1.02	0.917	0.906	0.765	1.06	1.21	–	1	0.851	0.781	0.63	0.687	0.467	0.421	0.508	0.523	0.397	0.361	0.3
NCI-H2347	0.844	0.981	0.515	0.59	0.387	0.677	0.455	0.408	0.384	0.339	0.727	0.858	0.714	0.325	0.45	0.581	0.573	0.466	0.45	0.413
NCI-H2405	1.01	1.08	1.05	0.899	0.43	0.804	0.962	0.717	0.694	0.33	0.668	0.683	0.632	0.531	0.304	0.668	0.757	0.669	0.395	0.277
NCI-H3122	0.972	0.975	0.962	0.682	0.449	0.307	0.288	0.231	0.262	0.246	0.972	0.991	0.966	0.379	0.33	0.593	0.599	0.506	0.364	0.279
PC-3 [JPC-3]	0.947	1.06	1.06	0.906	0.897	0.955	1.01	1.05	0.969	0.722	0.727	0.691	0.768	0.513	0.428	0.932	1.13	0.825	0.481	0.486
PC-14	0.953	0.922	0.995	0.934	0.832	0.957	0.896	0.951	0.728	0.59	0.254	0.347	0.187	0.0884	0.0848	0.114	0.147	0.0932	0.0421	0.0404
RERF-LC-KJ	0.788	0.866	0.639	0.83	0.767	0.885	0.798	0.773	0.685	0.46	0.905	0.848	0.492	0.278	0.179	0.425	0.385	0.325	0.162	0.16
